Measurements: paper PMC12112332, “Characterization of Novel and Known Activators of Cannabinoid Receptor Subtype 2 Reveals Mixed Pharmacology That Differentiates Mycophenolate Mofetil and GW-842,166X from MDA7” (International Journal of Molecular Sciences, 2025)
Where two headings read alike, the source gives them in different places.

Columns and labels:
rat CB2 = biological target: T1, rat CB2 (Rattus norvegicus, UniProt Q9QZN9); assay: β-arrestin recruitment assay (PathHunter, Eurofins) in rat CB2 cells; type: cell-based; parameters: expressed in transfected cells; settings: for rCB2 β-Arrestin (−) CP55,940 % Max / rCB2 β-Arrestin (+) CP55,940 % Max: % of maximal CP55,940 response
T1 sequence (Q9QZN9 1-360): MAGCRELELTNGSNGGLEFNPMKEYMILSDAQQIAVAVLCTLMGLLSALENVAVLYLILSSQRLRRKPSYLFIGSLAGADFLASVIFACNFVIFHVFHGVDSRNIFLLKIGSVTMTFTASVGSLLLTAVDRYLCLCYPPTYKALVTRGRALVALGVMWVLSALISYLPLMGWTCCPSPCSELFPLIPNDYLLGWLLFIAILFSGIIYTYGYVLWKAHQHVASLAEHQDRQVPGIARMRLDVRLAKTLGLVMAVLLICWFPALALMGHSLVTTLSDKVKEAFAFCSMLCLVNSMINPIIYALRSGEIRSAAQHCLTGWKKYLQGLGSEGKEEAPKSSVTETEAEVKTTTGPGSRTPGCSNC
Experimental: Assays were performed by Eurofins Discovery (Freemont, CA, USA). PathHunter cell lines were expanded from freezer stocks according to standard procedures. Rat CB2 cells were seeded in a total volume of 20 μL into white-walled, 384-well microplates and incubated at 37 °C for the appropriate time prior to testing. For agonist determination, cells were incubated with the sample to induce a response. Intermediate dilution of sample stocks was performed to generate a 5× sample in assay buffer. A total of 5 μL of 5× sample was added to the cells and incubated at 37 °C or room temperature for at least 120 min. The final assay vehicle concentration was 1%. For allosteric modulator determination, cells were pre-incubated with the sample followed by agonist challenge at the EC20. Intermediate dilution of sample stocks was performed to generate a 5× sample in assay buffer. A total of 5 μL of 5× sample was added to cells and incubated at 37 °C or room temperature for 15 min. Vehicle concentration was 1%. Then, 5 μL of 6× EC20 agonist in assay buffer was added to the cells and incubated at 37 °C or room temperature for at least 120 min.
The assay signal was generated through a single addition of 15 μL (50% v/v) of PathHunter Detection reagent cocktail, followed by a one-hour incubation at room temperature. Microplates were read following signal generation with a PerkinElmer Envision^TM instrument for chemiluminescent signal detection.
Compound activity was analyzed using the CBIS data analysis suite (ChemInnovation). For agonist mode assays, percentage activity was calculated using the following formula: % Activity = 100% × (mean RLU of test sample − mean RLU of vehicle control)/(mean MAX control ligand − mean RLU of vehicle control).
For positive allosteric mode assays, percentage modulation was calculated using the following formula: % Modulation = 100% × ((mean RLU of test sample − mean RLU of EC20 control)/(mean RLU of MAX control ligand − mean RLU of EC20 control)).

rCB2 = biological target: T2, rCB2 (Rattus norvegicus, UniProt Q9QZN9); assay: Thallium flux assay in HEK/GIRK cells expressing rCB2; type: cell-based; settings: for rCB2 GIRK (−) 2-AG % Max ± SEM / rCB2 GIRK (+) 2-AG % Max ± SEM: % of maximal 2-AG response
T2 construct: expressed in transfected cells; host or cells: HEK293 cells stably co-expressing GIRK1/2 channels
T2 sequence (Q9QZN9 1-360): T1 sequence (Q9QZN9 1-360)
Experimental: To identify new compounds capable of potentiating CB2 responses to the endogenous agonist 2-AG, we used a thallium flux assay measuring the ability of ligands to enhance 2-AG-induced responses in cells expressing rCB2 and GIRK1/2 channels to screen a collection of FDA-approved drugs. Compounds were added to cells loaded with thallium-sensitive dye and allowed to incubate for 2.3 min, whereupon a submaximal concentration (EC20) of 2-AG was added to the cells and the signal was monitored for an additional 2.7 min. The ~1000 compound collection was initially screened at a single point using a 10 µM concentration of the compound. Test compounds that potentiated the cellular response to 2-AG by a minimum of 3 standard deviations above the average EC20 agonist response were selected as potential PAM hits. A total of 63 putative PAMs were identified; of these, 13 were confirmed as active with concentration-dependent activity at the rCB2 receptor.
The cell lines used in this manuscript were generated in-house. Their preparation is described in detail in Qi et al.. Cells were used for 10 passages for experiments and day-to-day signals in both the CB2 and CB1 lines were stable across this passage number. Human Embryonic Kidney (HEK) 293 cells stably expressing rCB2 and the G protein Gqi9 were maintained in Dulbecco’s modified Eagle media (DMEM) containing 10% FBS, 1× antibiotic/antimycotic, 20 mM HEPES, 1 mM sodium pyruvate, 2 mM L-glutamine, 1× non-essential amino acids, 700 µg/mL G418 sulfate, and 0.6 µg/mL puromycin. HEK cells stably expressing rCB2 or rCB1 and the G protein inwardly rectifying potassium channel (GIRK) were maintained in DMEM/F12 containing 10% FBS, 1× antibiotic/antimycotic, 20 mM HEPES, 1 mM sodium pyruvate, 2 mM L-glutamine, 1× non-essential amino acids, 700 µg/mL G418 sulfate, and 0.6 µg/mL puromycin. Cells were monitored by periodic PCR detection using the LookOut Mycoplasma PCR Detection Kit (Sigma-Aldrich, St Louis, MO, USA) to eliminate potential mycoplasma infection. Reagents were obtained from Invitrogen (Waltham, MA, USA) unless otherwise noted.
Thallium flux assays were performed as previously described in Niswender et al., 2008 [31]. HEK/GIRK cells stably expressing rCB1 or rCB2 (15,000 cells/20 µL/well) were seeded in 384-well, poly-D-lysine coated assay plates (Corning BioCoat®) (Corning Inc., Corning, NY, USA) and incubated overnight at 37 °C in the presence of 5% CO2. The next day, the medium was removed and replaced with 20 μL of 1.2 µM thallium-sensitive dye Thallos-AM (ION biosciences, San Marcos, TX, USA), prepared as a DMSO stock solution mixed in a 1:1 ratio with 10% (w/v) pluronic acid F-127, and diluted in assay buffer (Hank’s balanced salt solution, 20 mM HEPES, pH 7.4). Following 1 h at room temperature, the dye solution was removed and replaced with 20 µL assay buffer. For screening of the FDA-Approved Drug Collection, 10 mM DMSO stocks of library compounds were transferred to daughter plates using an Echo acoustic plate reformatter (Labcyte, Sunnyvale, CA, USA) and diluted in assay buffer to a 2× final concentration. For concentration–response curve experiments, compounds were serially diluted 1:3 into 10-point concentration–response curves in DMSO, transferred to daughter plates using the Echo or Bravo Automated Liquid Handling Platform (Agilent Technologies, Santa Clara, CA, USA), and diluted in assay buffer to a 2× final concentration. Thallium flux was measured using the Hamamatsu FDSS/μCELL Kinetic Plate Imager (Bridgewater, NJ, USA). After the establishment of a fluorescence baseline (excitation, 480 ± 20 nm; emission, 540 ± 30 nm), 20 µL (2×) of test compound was added to the cells at 1 s and the response was measured. […]

[1] = rCB2 β-Arrestin (+) CP55,940 pEC50, presence of EC20 CP55,940
[2] = rCB2 β-Arrestin (−) CP55,940 pEC50, absence of CP55,940
[3] = rCB2 GIRK (−) 2-AG pEC50 ± SEM, thallium flux, absence of 2-AG
[4] = thallium flux, presence of EC20 2-AG

Structure (SMILES) | rCB2 β-Arrestin (−) CP55,940 % Max (rat CB2; absence of CP55,940) [%] | rCB2 β-Arrestin (+) CP55,940 % Max (rat CB2; presence of EC20 CP55,940) [%] | EC50 (rat CB2; [1]) [nM] | EC50 (rat CB2; [2]) [nM] | EC50 (rCB2; [3]) [nM] | EC50 (rCB2; rCB2 GIRK EC50 in absence of 2-AG, thallium flux, absence of 2-AG) [nM] | EC50 (rCB2; rCB2 GIRK EC50 in presence of 2-AG, thallium flux, presence of EC20 2-AG) [nM] | rCB2 GIRK (−) 2-AG % Max ± SEM (rCB2; thallium flux, absence of 2-AG) [%] | rCB2 GIRK (+) 2-AG % Max ± SEM (rCB2; [4]) [%] | EC50 (rCB2; rCB2 GIRK (+) 2-AG pEC50 ± SEM, thallium flux, presence of EC20 2-AG) [nM] | rCB2 GIRK (−) 2-AG pEC50 ± SEM (rCB2; thallium flux, absence of 2-AG) | rCB2 GIRK (+) 2-AG pEC50 ± SEM (rCB2; [4]) | EC50 (rat CB2; absence of CP55,940, read-out: rCB2 β-Arrestin (−) CP55,940 pEC50 (converted)) [nM] | EC50 (rat CB2; presence of EC20 CP55,940, read-out: rCB2 β-Arrestin (+) CP55,940 pEC50 (converted)) [nM] | EC50 (rCB2; thallium flux rCB2, vehicle instead of AM630, read-out: pEC50 of mycophenolate mofetil CRC, vehicle (converted)) [nM] | EC50 (rCB2; thallium flux, absence of 2-AG, read-out: rCB2 GIRK EC50 in absence of 2-AG) [nM] | EC50 (rCB2; thallium flux, presence of EC20 2-AG, read-out: rCB2 GIRK EC50 in presence of 2-AG) [nM]
O=C(NCC1CCOCC1)c1cnc(Nc2ccc(Cl)cc2Cl)nc1C(F)(F)F [GW-842,166X, 2-(2,4-dichloroanilino)-N-(oxan-4-ylmethyl)-4-(trifluoromethyl)pyrimidine-5-carboxamide] | 97 | 120 | 631 | 162 | 55 | 56 | 74 | 89 ± 5 | 82 ± 4 | – | – | – | – | – | – | – | –
CC1(Cc2ccccc2)COc2cc(C(=O)N3CCCCC3)ccc21 (centres unmarked) [MDA7, 1-[(3-benzyl-3-methyl-2,3-dihydro-1-benzofuran-6-yl)carbonyl]piperidine] | 38 | 40 | > 10000 | 47.9 | > 10000 | – | – | −64 ± 13 | −65 ± 15 | > 10000 | < 5.0 | < 5.0 | – | – | – | – | –
COc1c(C)c2c(c(O)c1C/C=C(\C)CCC(=O)OCCN1CCOCC1)C(=O)OC2 [Mycophenolate mofetil] | 114 | 113 | – | – | – | – | – | 71 ± 5 | 74 ± 2 | – | – | – | 1150 | 1350 | 339 | 154 | 228
COc1c(C)c2c(c(O)c1C/C=C(\C)CCC(=O)O)C(=O)OC2 [Mycophenolic acid] | – | – | – | – | – | – | – | – | – | – | – | Inactive | – | – | – | – | –
